Experimental data: patent publication US10329289B2, “6,7-dihydro-5H-pyrrolo[3,4-B]pyridin-5-one allosteric modulators of the M4 muscarinic acetylcholine receptor” (Merck Sharp & Dohme Corp., priority 2015, dated 2019)

These compounds were tested against T1, human M4 muscarinic acetylcholine receptor (Homo sapiens, UniProt P08173) (assay: human FLIPR-based M4 PAM assay (Ca2+ mobilization, CHO-K1 cells with human M4 receptor and Gαqi5)). Conditions: acetylcholine at 20% of maximum response, read-out: M4 PAM IP.
T1 construct: expressed in transfected cells; host or cells: CHO-K1
T1 sequence (P08173 1-479): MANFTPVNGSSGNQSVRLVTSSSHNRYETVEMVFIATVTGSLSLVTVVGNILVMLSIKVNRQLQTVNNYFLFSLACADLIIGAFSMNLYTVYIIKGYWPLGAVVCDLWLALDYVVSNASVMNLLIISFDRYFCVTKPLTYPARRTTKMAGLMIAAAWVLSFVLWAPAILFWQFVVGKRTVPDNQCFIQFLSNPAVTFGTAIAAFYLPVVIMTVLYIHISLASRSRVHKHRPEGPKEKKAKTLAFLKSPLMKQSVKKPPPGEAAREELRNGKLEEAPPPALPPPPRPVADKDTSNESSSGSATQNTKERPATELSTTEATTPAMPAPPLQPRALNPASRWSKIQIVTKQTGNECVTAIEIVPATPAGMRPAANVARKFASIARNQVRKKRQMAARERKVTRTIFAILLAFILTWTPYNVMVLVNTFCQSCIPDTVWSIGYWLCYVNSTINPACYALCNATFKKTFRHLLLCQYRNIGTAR
Assay type: cell-based
Procedure: In a typical experiment the M4 muscarinic acetylcholine receptor modulating activity of the compounds of the present invention was determined in accordance with the following experimental method. CHO-K1 cells stably transfected with human M4 receptor and chimeric G-protein Gαqi5 (Coward P, et al., Analytical Biochemistry, 270:242-248 (1999)) are thawed from liquid N2 storage, resuspended in growth medium, plated in black, clear bottom 384 well plates, and incubated 16-20 hours at 37° C., 5% CO2. On the day of assay, growth medium is removed, the cells are washed 2 times with wash buffer, and cells are incubated in dye loading buffer at 37° C., 5% CO2 for ˜1 hour. […] Next, 10 uL of acetylcholine is added (final concentration calculated so as to achieve 20% of the maximum acetycholine response), and the fluorescence reading is continued for 3.5 min. In some cases, a third addition of acetylcholine (final concentration calculated to achieve 70% of the maximal acetylcholine response) is performed. The resulting dose response curves are fit to a 4 parameter logistic equation and the final result is determined as the inflection point (IP) of the curve
CHO-K1 cells stably transfected with human M4 receptor and chimeric G-protein Gαqi5 are thawed from liquid N2 storage, resuspended in growth medium, plated in black, clear bottom 384 well plates, and incubated 16-20 hours at 37° C., 5% CO2.
On the day of assay, growth medium is removed, the cells are washed 2 times with wash buffer, and cells are incubated in dye loading buffer at 37° C., 5% CO2 for ˜1 h. […] Next, 10 uL of acetylcholine is added (final concentration calculated so as to achieve 20% of the maximum acetycholine response), and the fluorescence reading is continued for 3.5 min. In some cases, a third addition of acetylcholine (final concentration calculated to achieve 70% of the maximal acetylcholine response) is performed.

| SMILES | EC50 [nM] |
| --- | --- |
| Cc1cc2c(nc1N1CCC(Oc3ccc4c(c3)C[S+]([O-])C4)CC1)CNC2=O (single isomer, unassigned) [Example 168B] | 166 |
| Cc1cc2c(nc1N1CCC(OCC(O)C(F)(F)F)CC1)CNC2=O (single isomer, unassigned) [Example 181A] | 55 |
| Cc1cc2c(nc1N1CCC(OCC(O)C(F)(F)F)CC1)CNC2=O (single isomer, unassigned) [Example 181B] | 183 |
| COc1ccc(OC2[C@@H]3C[C@H]2CN(c2nc4c(cc2C)C(=O)NC4)C3)cn1 (single isomer, unassigned) [Example 185A] | 8630 |
| COc1ccc(OC2[C@@H]3C[C@H]2CN(c2nc4c(cc2C)C(=O)NC4)C3)cn1 (single isomer, unassigned) [Example 185B] | 2530 |
| Cc1cc2c(nc1N1CCC(OCC3(C)CC3C#N)CC1)CNC2=O (single isomer, unassigned) [Example 191A] | 1470 |
| Cc1cc2c(nc1N1CCC(OCC3(C)CC3C#N)CC1)CNC2=O (single isomer, unassigned) [Example 191B] | 30000 |
| Cc1cc2c(nc1N1CCC(OCC3(C)CC3C#N)CC1)CNC2=O (single isomer, unassigned) [Example 193A] | 312 |
| Cc1cc2c(nc1N1CCC(OCC3(C)CC3C#N)CC1)CNC2=O (single isomer, unassigned) [Example 193B] | 875 |
| CCc1cc2c(nc1N1CC[C@@H](Oc3cccnc3)[C@@H](F)C1)CNC2=O (single isomer, unassigned) [Example 215] | 304 |
| CCc1cc2c(nc1N1CC[C@@H](Oc3cccnc3)[C@@H](F)C1)CNC2=O (single isomer, unassigned) [Example 216, 3-ethyl-2-((3R,4S)- or (3S,4R)-3-fluoro-4-(pyridin-3-yloxy)piperidin-1-yl)-6,7-dihydro-5H-pyrrolo[3,4-b]pyridin-5-one] | 888 |
| CCOc1ccc(OC2CCN(c3nc4c(cc3C)C(=O)N[C@@H]4CCO)CC2)cn1 (single isomer, unassigned) [Example 234B] | 78 |
| Cc1cc2c(nc1N1CCC(Oc3ccc4c(c3)COC4)CC1)CN(CC(C)O)C2=O (single isomer, unassigned) [Example 238A, (R) or (S)-2-(4-((1,3-dihydro-2-benzofuran-5-yl)oxy)piperidin-1-yl)-6-(2-hydroxypropyl)-3-methyl-6,7-dihydro-5H-pyrrolo[3,4-b]pyridin-5-one] | 87 |
| COc1ccc(OC2CCN(c3nc4c(cc3C)C(=O)N([C@H](C)CO)C4)CC2)cn1 (single isomer, unassigned) [Example 264B] | 108 |

Now from value to compound:

| EC50 [nM] | SMILES |
| --- | --- |
| 40 | COc1ccc(OC2CCN(c3nc4c(cc3C)C(=O)N([C@@H](C)CO)C4)CC2)cn1 (single isomer, unassigned) [Example 264C] |
| 941 | COc1ccc(OC2CCN(c3nc4c(cc3C)C(=O)N[C@H]4CO)CC2)cn1 (single isomer, unassigned) [Example 271A] |
| 38 | COc1ccc(OC2CCN(c3nc4c(cc3C)C(=O)N[C@@H]4CO)CC2)cn1 (single isomer, unassigned) [Example 271B] |
| 4500 | COc1ccc(OC2CCN(c3nc4c(cc3C)C(=O)N(C)[C@H]4CO)CC2)cn1 (single isomer, unassigned) [Example 273A] |
| 23 | COc1ccc(OC2CCN(c3nc4c(cc3C)C(=O)N(C)[C@@H]4CO)CC2)cn1 (single isomer, unassigned) [Example 273B] |
| 3870 | COc1ccc(OC2CCN(c3nc4c(cc3C)C(=O)N(C)[C@@]4(C)CO)CC2)cn1 (single isomer, unassigned) [Example 287A] |
| 214 | COc1ccc(OC2CCN(c3nc4c(cc3C)C(=O)N(C)[C@]4(C)CO)CC2)cn1 (single isomer, unassigned) [Example 287B] |
| 22 | Cc1cc2c(nc1N1CCC(Oc3ccc4c(c3)C[C@@H](O)C4)CC1)CNC2=O (single isomer, unassigned) [Example 324A] |
